Columns and labels:
[1] = system: T. vivax (STIB719); assay: Cattle efficacy for compound 2, intravenous infusion (Clinvet), T. vivax; type: in vivo, Trypanosoma vivax; details: Friesian-Holstein cattle infected with T. vivax; n = 4; at 100 days
Experimental: Unfortunately, an injection site tolerability issue arose during the pharmacokinetic study in cattle that was not evident in rats. […] To circumvent these issues, compound 2 was assessed in an in vivo proof of concept efficacy study in Friesian-Holstein cattle using an IV infusion regimen. The study was conducted in four animals infected with T. congolense (KONT2/133) and four animals infected with T. vivax (STIB719). Three additional animals infected with each strain formed the vehicle control groups and were dosed IV once daily with saline. Pharmacokinetic modeling was used to define a dosing regimen that mimics the blood concentration–time profile that delivered cure in mice (10 mg/kg SC once daily for 2 days, with a Ctrough of >20 ng/mL (>38 nM)). A continuous infusion over 36 h and two loading doses 24 h apart were required. […]
Response to treatment was determined by monitoring parasitaemia twice a week until day 21. […]
In each of the cattle efficacy studies (3.3, 3.4 and 3.5), efficacy was assessed primarily on absence of recrudescence of parasitaemia for 100 days after treatment administration together with improvements in Packed Cell Volume, body weight and clinical signs of infected compared with uninfected animals. […]

[2] = system: T. congolense; assay: Microcalorimetry of parasite growth; type: cell-based, Trypanosoma congolense
Experimental: These observations offer confidence that rats can be used as a model animal in the drug development path going forward prior to studies in cattle. Exposure following IM injection in rats was sufficient to warrant progression to cattle efficacy studies, although the short half-life raised concerns that the required time above the EC99 blood concentration may not be sufficient for cure following a single IM dose at 10 mg/kg.

CC(C)CS(=O)(=O)N[C@H]1CC[C@H](Nc2nc(N)c(C(=O)c3c(F)cc(CN(C)C)cc3F)s2)CC1 [Compound 2, N-(trans)-[4-[[4-Amino-5-[4-(dimethylaminomethyl)-2,6-difluoro-benzoyl]thiazol-2-yl]amino]cyclohexyl]-2-methyl-propane-1-sulfonamide]
Efficacy in cattle, IV bolus and infusion [1]: cured
Effect on parasites, microcalorimetry ([2]; 10 ng/mL): slowed parasite growth
Effect on parasites, microcalorimetry ([2]; 30 ng/mL): rapid kill
Effect on parasites, microcalorimetry ([2]; 100 ng/mL): rapid kill

From PMC9014415, “Repositioning of a Diaminothiazole Series Confirmed to Target the Cyclin-Dependent Kinase CRK12 for Use in the Treatment of African Animal Trypanosomiasis” (Journal of Medicinal Chemistry, 2022)
